Results on seven compounds are retold here after US20260226010A1, “HETEROCYCLIC COMPOUNDS AS PI3Ka INHIBITORS” (Pikavation Therapeutics, Inc., priority 2023, published 2026).

SMILES strings stand for the structures. Where only a bound is given, the exact number is not on record here.

The assay has as its system T47D (PIK3CA H1047R) cells. Briefly: pS473 AKT assay. In kind it is cell-based. Particulars: Homo sapiens; pSer473 AKT in T47D (PIK3CA H1047R) cells, 2 h treatment, DMEM with 2.5% FBS; read-out: T47D_IC50. As for the experimental part: T47D (PIK3CA H1047R) cells were cultured using 10-cm petri dishes with recommended medium plus 10% fetal bovine serum. One day before the assay, cells were seeded in 96-well plates. After overnight incubation, the medium was changed to DMEM with 2.5% fetal bovine serum (FBS) and the cells were treated with different concentrations of the compounds for 2 h. Cells were then fixed using 4% paraformaldehyde at room temperature for 20 min. Aspirate 4% paraformaldehyde, and wash cells using 1× regular phosphate buffered saline 3 times, 5 min each. Aspirate any residual phosphate buffered saline and block cells using 10% goat serum containing 1% bovine serum albumin and 0.3% Triton X-100 at room temperature for 1 h. Without any additional washing, primary antibodies (rabbit anti-pSer473 AKT) were diluted using blocking buffer and added at a final volume of 50 microliter per well. Keep assay plates with primary antibodies overnight at 4° C. Wash cells using 1× regular phosphate buffered saline 3 times, 5 min each. After the final wash, incubate cells with horseradish peroxidase-conjugated secondary antibodies (goat Anti-rabbit IgG) diluted using the same blocking buffer at room temperature for 1 h. Wash cells thoroughly using 1× regular phosphate buffered saline 3 times, 5 min each. Aspirate any residual phosphate buffered saline. Add Super-Signal ELISA Pico Chemiluminescent Substrate at a final volume of 100 microliter per well. Read plates on i3× Multi-Mode Microplate Reader and calculate IC50 values using GraphPad Prism software.
With `Cc1cc2c(c(C(C)Nc3ccccc3C(=O)O)c1)CC1(CCc3ccccc31)N(C)C2=O` (stereo not shown) [Example 1, 2-[1-(2,7-Dimethyl-1-oxo-spiro[4H-isoquinoline-3,1′-indane]-5yl)ethylamino]benzoic acid], the IC50 is below 1000 nM.
Under `Cc1cc2c(c(C(C)Nc3ccc(C)nc3C(=O)O)c1)CC1(CCc3ccccc31)N(C)C2=O` (stereo not shown) [Example 2, 3-[1-(2,7-Dimethyl-1-oxo-spiro[4H-isoquinoline-3,1′-indane]-5-yl)ethylamino]-6-methyl-pyridine-2-carboxylic acid] stands below 1000 nM; under `Cc1cc2c(c(C(C)Nc3ccc(Cl)nc3C(=O)O)c1)CC1(CCc3ccccc31)N(C)C2=O` (stereo not shown) [Example 3, 6-Chloro-3-[1-(2,7-dimethyl-1-oxo-spiro[4H-isoquinoline-3,1′-indane]-5-yl)ethylamino]pyridine-2-carboxylic acid], below 1000 nM.
Under `Cc1cc2c(c(C(C)Nc3ccccc3C(=O)O)c1)CC1(Cc3ccccc3C1)N(C)C2=O` (stereo not shown) [Example 4, 2-[1-(2,7-Dimethyl-1-oxo-spiro[4H-isoquinoline-3,2′-indane]-5-yl)ethylamino]benzoic acid] stands 1000 to 5000 nM.
Under `Cc1cc2c(c(C(C)Nc3ccc(C)nc3C(=O)O)c1)CC1(Cc3ccccc3C1)N(C)C2=O` (stereo not shown) [Example 5, 3-((1-(2′,7′-Dimethyl-1′-oxo-1,1′,3,4′-tetrahydro-2′H-spiro[indene-2,3′-isoquinolin]-5′-yl)ethyl)amino)-6-methylpicolinic acid] stands 1000 to 5000 nM.
Turning to `Cc1cc2c(c(C(C)Nc3ccc(Cl)nc3-c3cnn(C)c3)c1)CC1(CCc3ccccc31)N(C)C2=O` (stereo not shown) [Example 6, 5-[1-[[6-Chloro-2-(1-methylpyrazol-4-yl)-3-pyridyl]amino]ethyl]-2,7-dimethyl-spiro[4H-isoquinoline-3,1′-indane]-1-one], the IC50 was below 1000 nM.
Turning to `Cc1cc2c(c(C(C)Nc3ccc(Cl)nc3-c3ccncc3F)c1)CC1(CCc3ccccc31)N(C)C2=O` (stereo not shown) [Example 7, 5-[1-[[6-Chloro-2-(3-fluoro-4-pyridyl)-3-pyridyl]amino]ethyl]-2,7-dimethyl-spiro[4H-isoquinoline-3,1′-indane]-1-one], the IC50 is below 1000 nM.
